*1 amine or outer side, *2 acyl side, *3 side chain or, on linkers, in order; H or OH if unused. Where a SMILES comes first, the peptide text is derived from it. Bridges are numbered along the chain shown (N, C = ends). [ ]: non-standard residue; d: D form. TATA = O=C(CC[*:1])N1CN(C(=O)CC[*:2])CN(C(=O)CC[*:3])C1; tBuAla = CC(C)(C)C[C@H](N)C(=O)O; hLys = NCCCCC[C@H](N)C(=O)O

The assay deals with T1, Coagulation factor XII (Homo sapiens, UniProt P00748).
T1 sequence (P00748 whole entry): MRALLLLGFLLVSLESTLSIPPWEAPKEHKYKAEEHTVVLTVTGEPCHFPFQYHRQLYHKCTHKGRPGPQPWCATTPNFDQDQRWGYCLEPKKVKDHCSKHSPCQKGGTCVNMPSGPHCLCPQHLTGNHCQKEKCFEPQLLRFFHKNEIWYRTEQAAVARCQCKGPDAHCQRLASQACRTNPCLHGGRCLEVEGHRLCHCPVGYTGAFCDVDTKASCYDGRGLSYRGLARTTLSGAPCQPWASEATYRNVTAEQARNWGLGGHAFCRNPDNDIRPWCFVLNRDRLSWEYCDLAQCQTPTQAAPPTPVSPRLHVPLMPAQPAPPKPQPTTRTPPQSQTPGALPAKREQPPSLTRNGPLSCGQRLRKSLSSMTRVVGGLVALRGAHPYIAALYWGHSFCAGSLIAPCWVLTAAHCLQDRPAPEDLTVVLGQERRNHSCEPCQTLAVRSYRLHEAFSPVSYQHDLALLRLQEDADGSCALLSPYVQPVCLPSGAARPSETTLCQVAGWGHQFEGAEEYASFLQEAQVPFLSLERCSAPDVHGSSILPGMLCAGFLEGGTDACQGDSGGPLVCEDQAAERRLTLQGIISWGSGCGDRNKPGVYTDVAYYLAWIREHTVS
Kind of assay: Inhibition of human beta factor 12a using fluorogenic substrate Boc-Gln-Gly-Arg-AMC preincubated for 10 mins followed by addition of substrate measured every min for 30 mins.
What is called Ki is a measure of affinity in units of concentration, obtained from inhibition or displacement. A lower Ki goes with tighter binding. Consider `CC[C@H](C)[C@@H]1NC(=O)[C@@H](NC(=O)[C@@H](N)CCCNC(=N)N)CSCCC(=O)N2CN3CN(C2)C(=O)CCSC[C@H](NC(=O)[C@@H]2CCCN2C(=O)[C@H](CC(C)C)NC(=O)[C@H](CCCNC(=N)N)NC1=O)C(=O)N[C@@H](CCCNC(=N)N)C(=O)N[C@@H](CCC(N)=O)C(=O)N[C@@H](CC(C)C)C(=O)N[C@@H](CCCNC(=N)N)C(=O)N[C@H](C(=O)N[C@@H](CCCNC(=N)N)C(=O)N[C@@H](Cc1c[nH]c2ccccc12)C(=O)O)CSCCC3=O` (H-RCIRLPCRQLRCRW-OH; linker 2-7-12 via TATA), for which the Ki is 310 nM.

Compound `CC(C)C[C@@H]1NC(=O)[C@H](CCC(N)=O)NC(=O)[C@H](CCCNC(=N)N)NC(=O)[C@@H]2CSCCC(=O)N3CN(CN(C3)C(=O)CCSC[C@@H](C(=O)N[C@@H](CCCNC(=N)N)C(=O)O)NC(=O)[C@H](CCCNC(=N)N)NC1=O)C(=O)CCSC[C@H](NC(=O)[C@H](C)N)C(=O)N[C@@H](Cc1ccccc1)C(=O)N[C@@H](CCCNC(=N)N)C(=O)N[C@@H](CC(C)C)C(=O)N1CCC[C@H]1C(=O)N2` (H-ACFRLPCRQLRCR-OH; linker 2-7-12 via TATA) had an inhibition constant Ki of 59.2 nM. This Ki lies about 5.2-fold lower than the previous one.

As to `CC[C@H](C)[C@@H]1NC(=O)[C@H](CCCNC(=N)N)NC(=O)[C@H](Cc2ccccc2)NC(=O)[C@@H](NC(=O)[C@@H](N)CCCNC(=N)N)CSCCC(=O)N2CN3CN(C2)C(=O)CCSC[C@H](NC(=O)[C@@H]2CCCN2C1=O)C(=O)N[C@@H](CCCNC(=N)N)C(=O)N[C@@H](CCC(N)=O)C(=O)N[C@@H](CC(C)C)C(=O)N[C@@H](CCCNC(=N)N)C(=O)N[C@H](C(=O)N[C@@H](CCCNC(=N)N)C(=O)N[C@@H](Cc1c[nH]c2ccccc12)C(=O)O)CSCCC3=O` (H-RCFRIPCRQLRCRW-OH; linker 2-7-12 via TATA), the Ki came to 890 nM. This Ki is about 15-fold higher than that of the compound before.

Compound `CC(C)C[C@@H]1NC(=O)[C@H](CCC(N)=O)NC(=O)[C@H](CCCNC(=N)N)NC(=O)[C@@H]2CSCCC(=O)N3CN(CN(C3)C(=O)CCSC[C@H](NC(=O)[C@@H](N)CCCNC(=N)N)C(=O)N[C@@H](C/C=C/c3ccccc3)C(=O)N[C@@H](CCCNC(=N)N)C(=O)N[C@@H](CC(C)C)C(=O)N3CCC[C@H]3C(=O)N2)C(=O)CCSC[C@@H](C(=O)N[C@@H](CCCNC(=N)N)C(=O)N[C@@H](Cc2c[nH]c3ccccc23)C(=O)O)NC(=O)[C@H](CCCNC(=N)N)NC1=O` had an inhibition constant Ki of 114 nM.

Compound `CC(C)C[C@@H]1NC(=O)[C@H](CCC(N)=O)NC(=O)[C@H](CCCNC(=N)N)NC(=O)[C@@H]2CSCCC(=O)N3CN(CN(C3)C(=O)CCSC[C@H](NC(=O)[C@@H](N)CCCNC(=N)N)C(=O)N[C@@H](Cc3ccccc3)C(=O)N[C@@H](CCCNC(=N)N)C(=O)N[C@@H](C)C(=O)N3CCC[C@H]3C(=O)N2)C(=O)CCSC[C@@H](C(=O)N[C@@H](CCCNC(=N)N)C(=O)N[C@@H](Cc2c[nH]c3ccccc23)C(=O)O)NC(=O)[C@H](CCCNC(=N)N)NC1=O` (H-RCFRAPCRQLRCRW-OH; linker 2-7-12 via TATA) registered an inhibition constant Ki above 3000 nM.

In turn, `CC(C)C[C@@H]1NC(=O)[C@H](CCC(N)=O)NC(=O)[C@H](CCCNC(=N)N)NC(=O)[C@@H]2CSCCC(=O)N3CN(CN(C3)C(=O)CCSC[C@H](NC(=O)[C@@H](N)CCCNC(=N)N)C(=O)N[C@@H](Cc3ccccc3F)C(=O)N[C@@H](CCCNC(=N)N)C(=O)N[C@@H](CC(C)C)C(=O)N3CCC[C@H]3C(=O)N2)C(=O)CCSC[C@@H](C(=O)N[C@@H](CCCNC(=N)N)C(=O)N[C@@H](Cc2c[nH]c3ccccc23)C(=O)O)NC(=O)[C@H](CCCNC(=N)N)NC1=O` had a Ki of 26.8 nM.

In turn, `CC(C)C[C@@H]1NC(=O)[C@H](CCC(N)=O)NC(=O)[C@H](CCCNC(=N)N)NC(=O)[C@@H]2CSCCC(=O)N3CN(CN(C3)C(=O)CCSC[C@H](NC(=O)[C@@H](N)CCCNC(=N)N)C(=O)N[C@@H](Cc3ccccc3)C(=O)N[C@@H](CCCCN)C(=O)N[C@@H](CC(C)C)C(=O)N3CCC[C@H]3C(=O)N2)C(=O)CCSC[C@@H](C(=O)N[C@@H](CCCNC(=N)N)C(=O)N[C@@H](Cc2c[nH]c3ccccc23)C(=O)O)NC(=O)[C@H](CCCNC(=N)N)NC1=O` (H-RCFKLPCRQLRCRW-OH; linker 2-7-12 via TATA) came in with a Ki of 111 nM. This Ki lies about 4.1-fold higher than the previous one.

Regarding `CC(C)C[C@@H]1NC(=O)[C@H](CCC(N)=O)NC(=O)[C@H](CCCNC(=N)N)NC(=O)[C@@H]2CSCCC(=O)N3CN(CN(C3)C(=O)CCSC[C@H](NC(=O)[C@@H](N)CCCNC(=N)N)C(=O)N[C@@H](Cc3ccccc3)C(=O)N[C@@H](CCCNC(=N)N)C(=O)N[C@@H](C(C)C)C(=O)N3CCC[C@H]3C(=O)N2)C(=O)CCSC[C@@H](C(=O)N[C@@H](CCCNC(=N)N)C(=O)N[C@@H](Cc2c[nH]c3ccccc23)C(=O)O)NC(=O)[C@H](CCCNC(=N)N)NC1=O` (H-RCFRVPCRQLRCRW-OH; linker 2-7-12 via TATA), the Ki came out at 570 nM.

Compound `CC(C)C[C@@H]1NC(=O)[C@H](CCC(N)=O)NC(=O)[C@H](CCCNC(=N)N)NC(=O)[C@@H]2CSCCC(=O)N3CN(CN(C3)C(=O)CCSC[C@H](NC(=O)[C@@H](N)CCCNC(=N)N)C(=O)N[C@@H](Cc3ccccc3)C(=O)N[C@@H](CCCCCN)C(=O)N[C@@H](CC(C)C)C(=O)N3CCC[C@H]3C(=O)N2)C(=O)CCSC[C@@H](C(=O)N[C@@H](CCCNC(=N)N)C(=O)N[C@@H](Cc2c[nH]c3ccccc23)C(=O)O)NC(=O)[C@H](CCCNC(=N)N)NC1=O` (H-RCF[hLys]LPCRQLRCRW-OH; linker 2-7-12 via TATA) yielded an inhibition constant Ki of 51 nM. This Ki lies about 11-fold lower than the previous one.

Regarding `CC(C)C[C@@H]1NC(=O)[C@H](CCC(N)=O)NC(=O)[C@H](CCCNC(=N)N)NC(=O)[C@@H]2CSCCC(=O)N3CN(CN(C3)C(=O)CCSC[C@H](NC(=O)[C@@H](N)CCCNC(=N)N)C(=O)N[C@@H](Cc3ccccc3)C(=O)N[C@@H](CCCNC(=N)N)C(=O)N[C@@H](CC(C)(C)C)C(=O)N3CCC[C@H]3C(=O)N2)C(=O)CCSC[C@@H](C(=O)N[C@@H](CCCNC(=N)N)C(=O)N[C@@H](Cc2c[nH]c3ccccc23)C(=O)O)NC(=O)[C@H](CCCNC(=N)N)NC1=O` (H-RCFR[tBuAla]PCRQLRCRW-OH; linker 2-7-12 via TATA), the inhibitory constant (Ki) was above 3000 nM.

Compound `CC(C)C[C@@H]1NC(=O)[C@H](CCC(N)=O)NC(=O)[C@H](CCCNC(=N)N)NC(=O)[C@@H]2CSCCC(=O)N3CN(CN(C3)C(=O)CCSC[C@H](NC(=O)[C@@H](N)CCCNC(=N)N)C(=O)N[C@@H](Cc3ccc(O)cc3)C(=O)N[C@@H](CCCNC(=N)N)C(=O)N[C@@H](CC(C)C)C(=O)N3CCC[C@H]3C(=O)N2)C(=O)CCSC[C@@H](C(=O)N[C@@H](CCCNC(=N)N)C(=O)N[C@@H](Cc2c[nH]c3ccccc23)C(=O)O)NC(=O)[C@H](CCCNC(=N)N)NC1=O` (H-RCYRLPCRQLRCRW-OH; linker 2-7-12 via TATA) returned an inhibition constant Ki of 32.2 nM. This lies in the double-digit nanomolar range.

For the compound `CCC(CC)C1NC(=O)[C@H](CCC(N)=O)NC(=O)[C@H](CCCNC(=N)N)NC(=O)[C@@H]2CSCCC(=O)N3CN(CN(C3)C(=O)CCSC[C@H](NC(=O)[C@@H](N)CCCNC(=N)N)C(=O)N[C@@H](Cc3ccccc3)C(=O)N[C@@H](CCCNC(=N)N)C(=O)N[C@@H](CC(C)C)C(=O)N3CCC[C@H]3C(=O)N2)C(=O)CCSC[C@@H](C(=O)N[C@@H](CCCNC(=N)N)C(=O)N[C@@H](Cc2c[nH]c3ccccc23)C(=O)O)NC(=O)[C@H](CCCNC(=N)N)NC1=O` (some centres not stated), the inhibition constant Ki was 38 nM.

The values above are taken from ChEMBL document CHEMBL3992518, “Peptide Macrocycle Inhibitor of Coagulation Factor XII with Subnanomolar Affinity and High Target Selectivity” (J Med Chem, 2017).
